From patent publication US12077759B2, “Compositions and methods for treating pathologic calcification” (Washington University, priority 2021, dated 2024)

System: Wnt/β-catenin pathway
Assay: Treatment of ACLp cells with Wnt agonist SKL2001 (rescue of osteogenesis)
Assay type: cell-based, human
Conditions: SKL2001 10 μM
Experimental: In short, 5×10^5 ACLp cells were first treated with KIF26B shRNA or scrambled shRNA for 48 hours and selected by Puromycin for another 48 hours. Afterward, 2×10^5 ACLp cells were seeded in a 12-well plate. Next osteogenesis was induced as above but in addition, SKL2001 (10 μM) dissolved in dimethyl sulfoxide (DMSO, Sigma-Aldrich) or DMSO only (vehicle) was added to cells. The medium was changed 3 times a week. After 7 days of osteogenic induction, the protein levels of active and total β-catenin were detected by Western blot as described above. After culture for 28 days, the Alizarin red staining was performed as above. After 28 days of osteogenic induction, RNA was isolated and expression of AXIN2 and WNT16 was measured using standard methods detailed above.

O=C(NCCCn1ccnc1)c1cc(-c2ccco2)on1 [SKL2001]
decrease of active β-catenin protein levels after KIF26B knockdown (Western blot) (ACLp cells transduced with KIF26B shRNA, 7 days of osteogenic induction): significantly attenuated
decrease in osteogenesis due to KIF26B loss-of-function (Alizarin red staining) (ACLp cells transduced with KIF26B shRNA, 28 days): reverted
AXIN2 mRNA expression (ACLp cells, 28 days of osteogenic induction, vehicle (DMSO) 1.00±0.02, p<0.001): 2.20±0.08
WNT16 mRNA expression (ACLp cells, 28 days of osteogenic induction, vehicle (DMSO) 1.00±0.14, p<0.001): 3.06±0.13
